ChEMBL document CHEMBL1201862, “PubChem BioAssay data set” (2004)
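Protocol summary: plate cells (96-well), add compound at 5 concentrations, incubate 48 h, interpolate endpoints linearly. GI50 = concentration required for 50% inhibition of growth.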 Activity calls are given as the source filed them. No stated cut-off is given here; in the data, active = GI50 up to about 1.1 µM and inactive = higher.

What was measured:
Assay in all cases: DTP human tumour cell line panel, 48 h
KM12 = test system: KM12
SF-539 = test system: SF-539
SW-620 = test system: SW-620
SF-295 = test system: SF-295
NCI/ADR-RES = test system: NCI/ADR-RES
U-251 = test system: U-251
786-0 = test system: 786-0
UACC-62 = test system: UACC-62
SK-MEL-5 = test system: SK-MEL-5
HOP-92 = test system: HOP-92
HL-60 = test system: HL-60
HOP-62 = test system: HOP-62
HCT-15 = test system: HCT-15
HCC 2998 = test system: HCC 2998
COLO 205 = test system: COLO 205
Hs-578T = test system: Hs-578T
HCT-116 = test system: HCT-116
DU-145 = test system: DU-145
K562 = test system: K562

| SMILES | GI50 (KM12) | GI50 (SF-539) | GI50 (SW-620) | GI50 (SF-295) | GI50 (NCI/ADR-RES) | GI50 (U-251) | GI50 (786-0) | GI50 (UACC-62) | GI50 (SK-MEL-5) | GI50 (HOP-92) | GI50 (HL-60) | GI50 (HOP-62) | GI50 (HCT-15) | GI50 (HCC 2998) | GI50 (COLO 205) | GI50 (Hs-578T) | GI50 (HCT-116) | GI50 (DU-145) | GI50 (K562) |
| --- | --- | --- | --- | --- | --- | --- | --- | --- | --- | --- | --- | --- | --- | --- | --- | --- | --- | --- | --- |
| CC(=O)N1c2ccccc2C(C)(C)OC1C(Cl)(Cl)Cl (stereo not drawn) | 30.1 µM (inactive) | 44.5 µM (inactive) | 34 µM (inactive) | 37.6 µM (inactive) | 31.7 µM (inactive) | 33.3 µM (inactive) | 39 µM (inactive) | 37 µM (inactive) | 23.8 µM (inactive) | 21 µM (inactive) | 16.8 µM (inactive) | 55.8 µM (inactive) | 32.2 µM | 23.2 µM (inactive) | 30.3 µM (inactive) | 22.6 µM (inactive) | 28.8 µM (inactive) | 42.1 µM (inactive) |  |
| O=C(O)CSCC(=O)c1ccccc1 | > 100 µM (inactive) | > 100 µM (inactive) | > 100 µM (inactive) | > 100 µM (inactive) | > 100 µM (inactive) | > 100 µM (inactive) | > 100 µM (inactive) | > 100 µM (inactive) | > 100 µM (inactive) | > 100 µM (inactive) | > 100 µM (inactive) | > 100 µM (inactive) | > 100 µM |  | > 100 µM (inactive) | > 100 µM (inactive) | > 100 µM (inactive) | > 100 µM (inactive) | > 100 µM (inactive) |
| O=c1n(-c2ccccc2)c(=O)n2n1C1CCC2CC1 | > 100 µM (inactive) | > 100 µM (inactive) | > 100 µM (inactive) | > 100 µM (inactive) | > 100 µM (inactive) | > 100 µM (inactive) | > 100 µM (inactive) | > 100 µM (inactive) | > 100 µM (inactive) | > 100 µM (inactive) | > 100 µM (inactive) | > 100 µM (inactive) | > 100 µM |  | > 100 µM (inactive) | > 100 µM (inactive) | > 100 µM (inactive) | > 100 µM (inactive) | > 100 µM (inactive) |
| N#CC(NNC(=O)c1c(Cl)c(Cl)c(Cl)c(Cl)c1-c1nc2cc(C(=O)c3ccccc3)ccc2[nH]1)c1ccccc1 (stereo not drawn) | 7.45 µM (inactive) | 3.18 µM (inactive) | 8.87 µM (inactive) | 3.68 µM (inactive) | 3.43 µM (inactive) | 15.8 µM (inactive) | 12.2 µM (inactive) |  | 3.4 µM (inactive) | 15 µM (inactive) | 4.69 µM (inactive) | 7.82 µM (inactive) | 4.74 µM |  | 10 µM (inactive) | 6.78 µM (inactive) | 10.6 µM (inactive) | 24.3 µM (inactive) | 3.24 µM (inactive) |
| CC1=C(C(=S)Nc2ccc(Cl)c(C(=O)OC(C)C)c2)SCCO1 | 19.4 µM (inactive) | 18.7 µM (inactive) | 20.2 µM (inactive) | 15.7 µM (inactive) | 18.8 µM (inactive) | 17.6 µM (inactive) | 16 µM (inactive) | 15.5 µM (inactive) | 16.9 µM (inactive) | 18.7 µM (inactive) | 17.5 µM (inactive) |  | 17.1 µM | 14.7 µM (inactive) | 20 µM (inactive) | 29.3 µM (inactive) | 15.3 µM (inactive) | 20.3 µM (inactive) | 17.1 µM (inactive) |
| [O-][Cl+3]([O-])([O-])[O-].[O-][Cl+3]([O-])([O-])[O-].c1ccn2c(N3CCOCC3)[n+]3c4ccccc4[n+]4c(N5CCOCC5)n5ccccc5c4c3c2c1 | 52.1 µM (inactive) | 65.3 µM (inactive) | > 100 µM (inactive) | > 100 µM (inactive) | > 100 µM (inactive) | 50.6 µM (inactive) | > 100 µM (inactive) | > 100 µM (inactive) | 34 µM (inactive) | > 100 µM (inactive) | 71.6 µM (inactive) |  | > 100 µM | > 100 µM (inactive) | 49.9 µM (inactive) | 33.7 µM (inactive) | > 100 µM (inactive) | > 100 µM (inactive) | > 100 µM (inactive) |
| CN(C)c1ccc(/C=C(\NC(=O)c2ccccc2)C2NC(Cc3c[nH]c4ccccc34)C(=O)O2)cc1 (stereo not drawn) | 6.71 µM (inactive) |  | 9.42 µM (inactive) | 36.1 µM (inactive) | > 100 µM (inactive) | 4.49 µM (inactive) | 12.2 µM (inactive) | > 82.6 µM (inactive) | 8.85 µM (inactive) | > 24.1 µM (inactive) | 6.65 µM (inactive) | 41.2 µM (inactive) | 14.3 µM | 6.12 µM (inactive) | 4.06 µM (inactive) | 11.2 µM (inactive) | 19.2 µM (inactive) | > 100 µM (inactive) | 10.9 µM (inactive) |
| CC(=O)Oc1cc(OC(C)=O)c2c(c1C)CC[C@@H]1[C@@H]2CC[C@]2(C)[C@@H](OC(C)=O)CC[C@@H]12 | 16.6 µM (inactive) | 16.1 µM (inactive) | 18.9 µM (inactive) | 23 µM (inactive) | 22.5 µM (inactive) | 18 µM (inactive) | 19.8 µM (inactive) | 18.7 µM (inactive) | 17.1 µM (inactive) | 20.4 µM (inactive) | 19.1 µM (inactive) | 20.9 µM (inactive) | 17.3 µM | 20.7 µM (inactive) |  | 21.9 µM (inactive) | 15.8 µM (inactive) | 24.1 µM (inactive) | 22 µM (inactive) |
| CCC(c1nc2ccccc2c(=O)n1NC(=O)C(C)(C)C)C1(O)CCCCC1 (stereo not drawn) | > 100 µM (inactive) | > 100 µM (inactive) | > 100 µM (inactive) | > 100 µM (inactive) | > 100 µM (inactive) | > 100 µM (inactive) | > 100 µM (inactive) | > 100 µM (inactive) | > 100 µM (inactive) | > 100 µM (inactive) | > 100 µM (inactive) | > 100 µM (inactive) | > 100 µM |  | > 100 µM (inactive) | > 100 µM (inactive) | > 100 µM (inactive) | > 100 µM (inactive) | > 100 µM (inactive) |
| O=C(OC[C@H]1C[C@H]2C(=O)OCCC[C@H]2O1)c1ccccc1 | > 100 µM (inactive) |  | > 100 µM (inactive) | > 100 µM (inactive) | > 100 µM (inactive) | > 100 µM (inactive) | > 100 µM (inactive) | > 100 µM (inactive) | > 100 µM (inactive) | > 100 µM (inactive) | > 100 µM (inactive) | > 100 µM (inactive) | > 100 µM |  | > 100 µM (inactive) | > 100 µM (inactive) | > 100 µM (inactive) | > 100 µM (inactive) | > 100 µM (inactive) |
| O=c1[nH]c(=O)n(C2CC(O)C(COP(=O)(OCC(Cl)(Cl)Cl)OCC(Cl)(Cl)Cl)O2)cc1F (stereo not drawn) | > 100 µM (inactive) |  | > 100 µM (inactive) | 0.123 µM (active) | 1.29 µM (inactive) | 2.95 µM (inactive) | 0.245 µM (active) | 0.396 µM (active) | 1.97 µM (inactive) | 6.9 µM (inactive) | 5.85 µM (inactive) | 0.115 µM (active) | > 56.1 µM | < 0.01 µM (active) | 23.5 µM (inactive) | 52.7 µM (inactive) | 2.21 µM (inactive) | 2.81 µM (inactive) | 4.11 µM (inactive) |
| N/C(=N\O)N/N=C/c1cc(Br)cc(Br)c1O | 5.08 µM (inactive) | 4.49 µM (inactive) | 8.95 µM (inactive) | 4.98 µM (inactive) | 1.08 µM (active) | 2.78 µM (inactive) | 1.91 µM (inactive) | 1.46 µM (inactive) | 6.89 µM (inactive) | 2.86 µM (inactive) |  | 4.21 µM (inactive) | 0.67 µM | 6.53 µM (inactive) | 13 µM (inactive) | 26.9 µM (inactive) | 4.24 µM (inactive) | 3.19 µM (inactive) | 2.65 µM (inactive) |
| Cc1ccc([N+](=O)[O-])c2c(NCCCN(C)C)ccnc12 | 69.8 µM (inactive) | 27.3 µM (inactive) | 30.7 µM (inactive) | > 100 µM (inactive) | 66.2 µM (inactive) | 87.3 µM (inactive) | 44.8 µM (inactive) |  | 29.6 µM (inactive) | 56.9 µM (inactive) | 47.1 µM (inactive) | > 90.4 µM (inactive) | 35 µM | 20.3 µM (inactive) | 15 µM (inactive) | > 100 µM (inactive) | 45.6 µM (inactive) | > 100 µM (inactive) | 70.8 µM (inactive) |
| CC(NC(=O)/C(=C/c1ccccc1O)NC(=O)c1ccccc1)C(=O)O (stereo not drawn) | 16.8 µM (inactive) | 18.1 µM (inactive) | > 100 µM (inactive) | 21.4 µM (inactive) | 12.7 µM (inactive) | 50.5 µM (inactive) | 24.9 µM (inactive) | 26 µM (inactive) | 55.2 µM (inactive) | 22.2 µM (inactive) | > 100 µM (inactive) |  | 24.1 µM | 9.23 µM (inactive) | > 100 µM (inactive) | 17.4 µM (inactive) | 33.2 µM (inactive) | 45.6 µM (inactive) | > 100 µM (inactive) |
| C/C1=C/C2=CC(C)C[C@@H]2C(=O)[C@]2(C)C(=O)CC(C)(C)[C@H]2CC1=O (stereo partly drawn) | > 50 µM (inactive) | > 50 µM (inactive) | > 50 µM (inactive) | > 50 µM (inactive) | > 50 µM (inactive) | > 50 µM (inactive) | > 50 µM (inactive) | > 50 µM (inactive) | > 50 µM (inactive) | > 50 µM (inactive) | 9.73 µM (inactive) |  | > 50 µM | > 50 µM (inactive) | > 50 µM (inactive) | > 50 µM (inactive) | > 50 µM (inactive) | > 50 µM (inactive) | 32.3 µM (inactive) |
